Measured values reported in US20230085307A1, “PYRIDAZINONE COMPOUND AND HERBICIDE” (NISSAN CHEMICAL CORPORATION, priority 2019, published 2023).

Legend:
Italian ryegrass [1] = assay: Test Example 5: herbicidal effect by foliage application, plastic box (Table 20, symbol K); assay type: in vivo, Italian ryegrass (Lolium multiflorum); settings: foliage application
In short: (§1)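 Plants sown in sterilized diluvial soil and grown 14 days in a greenhouse at 25° C to 30° C, then sprayed on the foliage with the compound's emulsion diluted in water to a predetermined herbicide amount. Injury to weeds and crops scored three weeks after application on a visual rating scale.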

rice flat sedge = assay: Test Example 3: herbicidal effect by foliage application, Wagner pot (Table 18, symbol E); assay type: in vivo, rice flat sedge (Cyperus iria); settings: for herbicidal effect on E (rice flat sedge), rating 0-5: 320 g/ha
In short: (§2)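 Plants were sown in alluvial soil held under 0.1–0.5 cm standing water and grown 14 days in a greenhouse at 25–30 °C. An emulsifiable formulation, water-diluted to the set dose, was then sprayed onto the foliage, and effects were scored three weeks later using previously defined criteria.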

lambsquarters [2] = assay: Test Example 5: herbicidal effect by foliage application, plastic box (Table 20, symbol O); assay type: in vivo, lambsquarters (Chenopodium album); settings: foliage application
In short: as §1

wild oat = assay: Test Example 5: herbicidal effect by foliage application, plastic box (Table 20, symbol I); assay type: in vivo, wild oat (Avena fatua); settings: foliage application
In short: as §1

blackgrass = assay: Test Example 5: herbicidal effect by foliage application, plastic box (Table 20, symbol J); assay type: in vivo, blackgrass (Alopecurus myosuroides); settings: foliage application
In short: as §1

green foxtail = assay: Test Example 5: herbicidal effect by foliage application, plastic box (Table 20, symbol G); assay type: in vivo, green foxtail (Setaria viridis); settings: foliage application
In short: as §1

windgrass = assay: Test Example 4: herbicidal effect by soil treatment (Table 19, symbol L); assay type: in vivo, windgrass (Apera spica-venti); settings: amount of applied herbicide 320 g/ha
In short: (§3)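 Seeds were sown in sterilized diluvial soil and covered with about 1.5 cm of soil. An emulsion formulation diluted with water to a predetermined herbicide amount was sprayed evenly onto the soil surface. Plants grew in a greenhouse at 25° C. to 30° C., and the effect was scored three weeks after application using criteria from an earlier test.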

velvetleaf = assay: Test Example 5: herbicidal effect by foliage application, plastic box (Table 20, symbol M); assay type: in vivo, velvetleaf (Abutilon theophrasti); settings: foliage application
In short: as §1

Chinese sprangletop = assay: Test Example 3: herbicidal effect by foliage application, Wagner pot (Table 18, symbol D); assay type: in vivo, chinese sprangletop (Leptochloa chinensis); settings: for herbicidal effect on D (Chinese sprangletop), rating 0-5: 320 g/ha
In short: as §2

lambsquarters [3] = assay: Test Example 4: herbicidal effect by soil treatment (Table 19, symbol O); assay type: in vivo, lambsquarters (Chenopodium album); settings: amount of applied herbicide 320 g/ha
In short: as §3

Italian ryegrass [4] = assay: Test Example 4: herbicidal effect by soil treatment (Table 19, symbol K); assay type: in vivo, Italian ryegrass (Lolium multiflorum); settings: amount of applied herbicide 320 g/ha
In short: as §3

oval-leafed pondweed = assay: Test Example 1: herbicidal activity, application before weed generation under submerged conditions (Table 16, symbol C); assay type: in vivo, oval-leafed pondweed (Monochoria vaginalis); settings: 320 g/ha applied herbicide
In short: (§4)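 Emulsion formulation, water-diluted to set dose, was put onto the flooded surface (4 cm depth, alluvial soil) the same day weeds were sown and 2.5-leaf rice transplanted. After 3 weeks at 25-30 °C under glass, each species was rated 0 (≤5% kill) to 5 (≥90% kill).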

barnyard grass = assay: Test Example 3: herbicidal effect by foliage application, Wagner pot (Table 18, symbol H); assay type: in vivo, barnyard grass (Echinochloa crus-galli); settings: for herbicidal effect on H (barnyard grass), rating 0-5: 320 g/ha
In short: as §2

late watergrass = assay: Test Example 1: herbicidal activity, application before weed generation under submerged conditions (Table 16, symbol A); assay type: in vivo, late watergrass (Echinochloa oryzicola); settings: 320 g/ha applied herbicide
In short: as §4

Japanese bulrush = assay: Test Example 1: herbicidal activity, application before weed generation under submerged conditions (Table 16, symbol B); assay type: in vivo, Japanese bulrush (Schoenoplectus juncoides); settings: 320 g/ha applied herbicide
In short: as §4

southern crabgrass = assay: Test Example 5: herbicidal effect by foliage application, plastic box (Table 20, symbol F); assay type: in vivo, southern crabgrass (Digitaria ciliaris); settings: foliage application
In short: as §1

chickweed = assay: Test Example 4: herbicidal effect by soil treatment (Table 19, symbol P); assay type: in vivo, common chickweed (Stellaria media); settings: amount of applied herbicide 320 g/ha
In short: as §3

[5] = AAH 320 g/ha, three weeks after application
[6] = 320 g/ha, three weeks after application
[7] = AAH 320 g/ha, evaluated three weeks after application
[8] = amount of applied herbicide 320 g/ha

Compound | K: Italian ryegrass, herbicidal effect (Italian ryegrass [1]; [5]) | herbicidal effect on E (rice flat sedge), rating 0-5 (rice flat sedge) | O: lambsquarters, herbicidal effect (lambsquarters [2]; [5]) | I: wild oat, herbicidal effect (wild oat; [5]) | J: blackgrass, herbicidal effect (blackgrass; [5]) | G: green foxtail, herbicidal effect (green foxtail; [5]) | herbicidal effect rating, L: windgrass (windgrass) | M: velvetleaf, herbicidal effect (velvetleaf; [5]) | herbicidal effect on D (Chinese sprangletop), rating 0-5 (Chinese sprangletop) | herbicidal effect rating, O: lambsquarters (lambsquarters [3]) | herbicidal effect rating, K: Italian ryegrass (Italian ryegrass [4]) | Herbicidal effect on C: oval-leafed pondweed (grade 0-5) (oval-leafed pondweed) | herbicidal effect on H (barnyard grass), rating 0-5 (barnyard grass) | Herbicidal effect on A: late watergrass (grade 0-5) (late watergrass) | Herbicidal effect on B: Japanese bulrush (grade 0-5) (Japanese bulrush) | F: southern crabgrass, herbicidal effect (southern crabgrass; [5]) | further results
Cc1nn(C)c(=O)c(-c2c(-c3ccc4c(c3)OCCO4)sc3ccccc23)c1O [1-089] | 5 (Herbicidal rate of 90% or more (almost completely withered)) | 5 (Herbicidal rate of 90% or more (almost completely withered)) | 3 (Herbicidal rate of 40% or more and less than 70%) | 0 (Herbicidal rate of 5% or less (almost no effect)) | 0 (Herbicidal rate of 5% or less (almost no effect)) | 5 (Herbicidal rate of 90% or more (almost completely withered)) | 0 (Herbicidal rate of 5% or less (almost no effect)) | 5 (Herbicidal rate of 90% or more (almost completely withered)) | 0 (Herbicidal rate of 5% or less (almost no effect)) | 5 (Herbicidal rate of 90% or more (almost completely withered)) | 0 (Herbicidal rate of 5% or less (almost no effect)) | 4 (Herbicidal rate of 70% or more and less than 90%) | 5 (Herbicidal rate of 90% or more (almost completely withered)) | 5 (Herbicidal rate of 90% or more (almost completely withered)) | 4 (Herbicidal rate of 70% or more and less than 90%) | 4 (Herbicidal rate of 70% or more and less than 90%) | 
CCCCOc1ccc(-c2sc3ccccc3c2-c2c(OC(=O)CCC)c(C)nn(C)c2=O)cc1 [1-025] |  | 5 (Herbicidal rate of 90% or more (almost completely withered)) |  |  |  |  | 0 (Herbicidal rate of 5% or less (almost no effect)) |  | 4 (Herbicidal rate of 70% or more and less than 90%) | 2 (Herbicidal rate of 20% or more and less than 40%) | 0 (Herbicidal rate of 5% or less (almost no effect)) | 4 (Herbicidal rate of 70% or more and less than 90%) | 5 (Herbicidal rate of 90% or more (almost completely withered)) | 3 (Herbicidal rate of 40% or more and less than 70%) | 5 (Herbicidal rate of 90% or more (almost completely withered)) |  | herbicidal effect grade, K: Italian ryegrass (Italian ryegrass [1]; [6]): 1 (Herbicidal rate of 5% or more and less than 20%); herbicidal effect grade, O: lambsquarters (lambsquarters [2]; [6]): 4 (Herbicidal rate of 70% or more and less than 90%); herbicidal effect grade, I: wild oat (wild oat; [6]): 0 (Herbicidal rate of 5% or less (almost no effect)); herbicidal effect grade, J: blackgrass (blackgrass; [6]): 0 (Herbicidal rate of 5% or less (almost no effect)); herbicidal effect grade, G: green foxtail (green foxtail; [6]): 3 (Herbicidal rate of 40% or more and less than 70%); herbicidal effect grade, M: velvetleaf (velvetleaf; [6]): 5 (Herbicidal rate of 90% or more (almost completely withered)); herbicidal effect grade, F: southern crabgrass (southern crabgrass; [6]): 3 (Herbicidal rate of 40% or more and less than 70%)
C=CCOc1ccccc1-c1sc2ccccc2c1-c1c(O)c(C)nn(C)c1=O [1-110] | 0 (Herbicidal rate of 5% or less (almost no effect)) | 4 (Herbicidal rate of 70% or more and less than 90%) | 0 (Herbicidal rate of 5% or less (almost no effect)) | 3 (Herbicidal rate of 40% or more and less than 70%) | 4 (Herbicidal rate of 70% or more and less than 90%) | 4 (Herbicidal rate of 70% or more and less than 90%) |  | 2 (Herbicidal rate of 20% or more and less than 40%) | 3 (Herbicidal rate of 40% or more and less than 70%) | 0 (Herbicidal rate of 5% or less (almost no effect)) | 2 (Herbicidal rate of 20% or more and less than 40%) | 4 (Herbicidal rate of 70% or more and less than 90%) | 4 (Herbicidal rate of 70% or more and less than 90%) | 3 (Herbicidal rate of 40% or more and less than 70%) | 0 (Herbicidal rate of 5% or less (almost no effect)) | 4 (Herbicidal rate of 70% or more and less than 90%) | herbicidal effect rating, P: chickweed (chickweed): 3 (Herbicidal rate of 40% or more and less than 70%)
Cc1nn(C)c(=O)c(-c2c(-c3ccc(OC(F)F)cc3)sc3ccc(F)cc23)c1OC(=O)c1cccs1 [2-288] |  |  |  |  |  |  |  |  |  |  |  | 4 (Herbicidal rate of 70% or more and less than 90%) |  | 5 (Herbicidal rate of 90% or more (almost completely withered)) | 5 (Herbicidal rate of 90% or more (almost completely withered)) |  | K: Italian ryegrass, herbicidal effect (criteria 0-5) (Italian ryegrass [1]; [7]): 5 (Herbicidal rate of 90% or more (almost completely withered)); herbicidal effect on E: rice flat sedge (rice flat sedge; [8]): 5 (Herbicidal rate of 90% or more (almost completely withered)); O: lambsquarters, herbicidal effect (criteria 0-5) (lambsquarters [2]; [7]): 5 (Herbicidal rate of 90% or more (almost completely withered)); I: wild oat, herbicidal effect (criteria 0-5) (wild oat; [7]): 1 (Herbicidal rate of 5% or more and less than 20%); J: blackgrass, herbicidal effect (criteria 0-5) (blackgrass; [7]): 4 (Herbicidal rate of 70% or more and less than 90%); G: green foxtail, herbicidal effect (criteria 0-5) (green foxtail; [7]): 5 (Herbicidal rate of 90% or more (almost completely withered)); M: velvetleaf, herbicidal effect (criteria 0-5) (velvetleaf; [7]): 5 (Herbicidal rate of 90% or more (almost completely withered)); herbicidal effect on D: Chinese sprangletop (Chinese sprangletop; [8]): 4 (Herbicidal rate of 70% or more and less than 90%); herbicidal effect on O: lambsquarters (lambsquarters [3]): 4 (Herbicidal rate of 70% or more and less than 90%); herbicidal effect on P: chickweed (chickweed): 4 (Herbicidal rate of 70% or more and less than 90%); herbicidal effect on K: Italian ryegrass (Italian ryegrass [4]): 4 (Herbicidal rate of 70% or more and less than 90%); herbicidal effect on H: barnyard grass (barnyard grass; [8]): 5 (Herbicidal rate of 90% or more (almost completely withered)); F: southern crabgrass, herbicidal effect (criteria 0-5) (southern crabgrass; [7]): 2 (Herbicidal rate of 20% or more and less than 40%)
